One experiment addresses T1, human mGlu2 (Homo sapiens, UniProt Q14416).
T1 construct: expressed in transfected cells; host or cells: HEK-293
The experiment in a line: mGlu GIRK cell-based thallium flux assay, human mGlu2. The note with it: HEK-293 cells co-expressing human mGlu2 and GIRK; EC80 glutamate; Tl flux. How it is done: (§1) The day before the assay, GIRK cells co-expressing human mGlu3, human or rat mGlu2, as described above, were plated in black-walled, clear-bottomed, amine-coated 384-well plates at a density of 15,000 cells/20 μL/well in the assay medium (glutamine-depleted basal DMEM supplemented with 10% dialyzed FBS, 20 mM HEPES, 1 mM sodium pyruvate). Cells were incubated at 37° C. in the presence of 5% CO2. […] Cells were washed with assay buffer using a microplate washer to remove the medium, resulting in 20 μL of buffer remaining in each well. Immediately, 20 μL of 2× Thallos dye solution was added to cells, and incubated for one hour at 25° C. During the cell dye loading incubation period, a 10-point concentration serial dilution of compound was created from a 10 mM DMSO compound stock by performing a 1:3 serial dilution in DMSO using the Bravo liquid handler. The 2× compound plate was generated by transferring 0.24 μL of the diluted compound in each well to a daughter plate using an Echo acoustic liquid handler.
(§2) After dye-loading, cell plates were washed with assay buffer to remove excess extracellular dye using a microplate washer, resulting in 20 μL of buffer remaining in each well. After a ten-minute equilibration period, cell, compound and agonist plates were loaded into a Hamamatsu μCell kinetic imaging plate reader equipped with liquid handler to monitor fluorescence changes at 480 nm excitation and 540 nm emission settings. Briefly, after collection of baseline fluorescence, 20 μL of compound was added and incubated for two minutes and twenty seconds. This is immediately followed by adding 10 μL of glutamate-thallium buffer to the wells containing compound. The fluorescent signal was monitored an additional 2.5 minutes after the glutamate addition. Multiple reference wells containing no compound received either no glutamate (for a baseline reference), […] glutamate, or ECmax glutamate (for normalization to maximum response). Fluorescence was measured throughout the experiment at a frequency of 1 measurement per every 2 seconds before the glutamate addition and a frequency of 1 measurement per every 1 second after the glutamate addition. Each compound concentration series occurred one time in each plate, and replicates from two or three plates were used in each experimental run. Thallium solutions were handled and disposed of according to guidelines from the Vanderbilt University Chemical Safety department.
(§3) Data were normalized using a static ratio function (F/F0) by dividing every fluorescent measurement by the initial fluorescent value for the corresponding well. The increase in signal resulting from the glutamate/thallium addition of the second add was measured by determining the slope from 3 seconds to 13 seconds after the addition. The average of all baseline slopes (no compound, no glutamate) was determined and this value was subtracted from all other slope values. The average of all ECmax slopes was determined and this value was used to normalize the baseline-corrected slopes to a percent max value (% Emax). The % Emax values for each compound series were plotted versus the log of the concentration and fit to a 4-parameter logistical equation with no fixed parameters.
(§4) Potency is reported as the IC50 resulting from the curve fit.

In the next experiment the target is T2, human mGlu3 (Homo sapiens, UniProt Q14832).
T2 construct: expressed in transfected cells; host or cells: HEK-293
As to the kind of experiment: mGlu GIRK cell-based thallium flux assay, human mGlu3. To be noted: HEK-293 cells co-expressing human mGlu3 and GIRK; EC80 glutamate; Tl flux. The procedure: Human embryonic kidney (HEK-293) cell lines stably co-expressing human or rat mGlu2 and G protein-coupled inwardly rectifying potassium (GIRK) channels, or human mGlu3 and GIRK, were used for in vitro evaluation of compound activity in thallium flux assay using a fluorescent thallium indicator dye.
The day before the assay, GIRK cells co-expressing human mGlu3, human or rat mGlu2, as described above, were plated in black-walled, clear-bottomed, amine-coated 384-well plates at a density of 15,000 cells/20 μL/well in the assay medium (glutamine-depleted basal DMEM supplemented with 10% dialyzed FBS, 20 mM HEPES, 1 mM sodium pyruvate). Cells were incubated at 37° C. in the presence of 5% CO2. The next day, assay buffer (Hanks balanced salt solution, 20 mM HEPES, 4.16 mM sodium bicarbonate, pH 7.2) was prepared to dilute compounds and Thallos AM fluorescent dye solution. The 2× Thallos dye solution (final concentration 0.34 μM to the cells) was prepared by mixing the dye stock (2.97 mM in DMSO) to 1:1 with 10% pluronic acid before adding to the assay buffer. Cells were washed with assay buffer using a microplate washer to remove the medium, resulting in 20 μL of buffer remaining in each well. Immediately, 20 μL of 2× Thallos dye solution was added to cells, and incubated for one hour at 25° C. During the cell dye loading incubation period, a 10-point concentration serial dilution of compound was created from a 10 mM DMSO compound stock by performing a 1:3 serial dilution in DMSO using the Bravo liquid handler. The 2× compound plate was generated by transferring 0.24 μL of the diluted compound in each well to a daughter plate using an Echo acoustic liquid handler. This is further diluted in 40 μL assay buffer, resulting in a range from 30 μM to 1.5 nM final concentration in the assay. The agonist plate (5×) was prepared to include EC80 glutamate concentration (a concentration to elicit 80% of a maximally effective glutamate concentration) in thallium buffer (125 mM […], 1 mM magnesium sulfate, 1.8 mM calcium sulfate, 5 mM glucose, 10 mM HEPES, pH 7.2, 12.5 mM thallium sulfate).
as §2
Data were normalized using a static ratio function (F/F0) by dividing every fluorescent measurement by the initial fluorescent value for the corresponding well. The increase in signal resulting from the glutamate/thallium addition of the second add was measured by determining the slope from 3 seconds to 13 seconds after the addition. […]

In a further experiment the target is T3, rat mGlu2 (Rattus norvegicus, UniProt P31421).
T3 construct: expressed in transfected cells; host or cells: HEK-293
As to the kind of experiment: mGlu GIRK cell-based thallium flux assay, rat mGlu2. The note with it: rat mGlu2 GIRK IC50 (nM), HEK-293 cells co-expressing rat mGlu2 and GIRK; EC80 glutamate; Tl flux. How it is done:
as §1, §2, §3, §4

Values joined by “and” are separate entries in the source; they are usually repeats but may differ in a detail not shown here. Equal entries are not always repeated.

T3 sequence (P31421 19-872): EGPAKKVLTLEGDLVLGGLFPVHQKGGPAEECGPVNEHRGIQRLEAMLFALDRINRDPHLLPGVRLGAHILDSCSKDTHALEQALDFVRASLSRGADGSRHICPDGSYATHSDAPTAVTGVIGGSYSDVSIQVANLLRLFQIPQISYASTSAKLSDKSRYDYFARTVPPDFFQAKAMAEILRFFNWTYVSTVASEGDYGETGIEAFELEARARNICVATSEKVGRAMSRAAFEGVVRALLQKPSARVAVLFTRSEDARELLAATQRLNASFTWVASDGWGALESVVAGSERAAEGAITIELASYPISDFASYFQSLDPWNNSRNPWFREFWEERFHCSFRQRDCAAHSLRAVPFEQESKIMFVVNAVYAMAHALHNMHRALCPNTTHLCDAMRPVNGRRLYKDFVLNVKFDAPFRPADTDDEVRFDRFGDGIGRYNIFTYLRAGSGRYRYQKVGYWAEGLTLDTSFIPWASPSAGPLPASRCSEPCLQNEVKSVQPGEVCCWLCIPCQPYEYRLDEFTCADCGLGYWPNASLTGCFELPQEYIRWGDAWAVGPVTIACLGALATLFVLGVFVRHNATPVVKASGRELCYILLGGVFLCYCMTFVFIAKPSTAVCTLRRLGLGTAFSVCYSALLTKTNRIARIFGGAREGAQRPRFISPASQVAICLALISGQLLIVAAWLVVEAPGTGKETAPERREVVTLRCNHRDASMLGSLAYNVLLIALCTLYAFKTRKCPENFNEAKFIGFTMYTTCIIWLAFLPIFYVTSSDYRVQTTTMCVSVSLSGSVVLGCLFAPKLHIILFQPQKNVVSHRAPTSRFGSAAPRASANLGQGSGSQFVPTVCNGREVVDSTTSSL
T1 sequence (Q14416 19-872): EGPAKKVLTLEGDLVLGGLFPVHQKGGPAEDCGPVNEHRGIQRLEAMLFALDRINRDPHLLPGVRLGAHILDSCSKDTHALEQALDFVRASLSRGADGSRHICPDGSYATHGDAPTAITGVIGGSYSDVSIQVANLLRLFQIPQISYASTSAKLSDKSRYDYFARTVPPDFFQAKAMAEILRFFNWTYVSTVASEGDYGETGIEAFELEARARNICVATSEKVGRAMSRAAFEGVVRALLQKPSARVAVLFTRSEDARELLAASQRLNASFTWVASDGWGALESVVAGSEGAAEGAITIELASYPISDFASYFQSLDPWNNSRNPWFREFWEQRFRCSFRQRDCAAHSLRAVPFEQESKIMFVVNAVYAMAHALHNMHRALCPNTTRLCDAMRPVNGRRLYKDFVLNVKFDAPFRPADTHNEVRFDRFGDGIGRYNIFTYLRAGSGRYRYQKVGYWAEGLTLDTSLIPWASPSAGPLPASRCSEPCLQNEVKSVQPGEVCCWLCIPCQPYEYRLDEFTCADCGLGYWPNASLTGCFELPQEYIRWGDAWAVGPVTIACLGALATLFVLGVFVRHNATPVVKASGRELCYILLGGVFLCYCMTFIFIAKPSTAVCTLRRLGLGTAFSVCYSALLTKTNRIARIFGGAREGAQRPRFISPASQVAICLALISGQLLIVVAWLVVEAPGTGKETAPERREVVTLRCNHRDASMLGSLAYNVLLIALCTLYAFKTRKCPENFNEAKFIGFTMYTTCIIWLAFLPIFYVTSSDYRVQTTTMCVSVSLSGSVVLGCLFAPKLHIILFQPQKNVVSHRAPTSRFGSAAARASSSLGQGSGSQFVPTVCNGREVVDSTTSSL
T2 sequence (Q14832 23-879): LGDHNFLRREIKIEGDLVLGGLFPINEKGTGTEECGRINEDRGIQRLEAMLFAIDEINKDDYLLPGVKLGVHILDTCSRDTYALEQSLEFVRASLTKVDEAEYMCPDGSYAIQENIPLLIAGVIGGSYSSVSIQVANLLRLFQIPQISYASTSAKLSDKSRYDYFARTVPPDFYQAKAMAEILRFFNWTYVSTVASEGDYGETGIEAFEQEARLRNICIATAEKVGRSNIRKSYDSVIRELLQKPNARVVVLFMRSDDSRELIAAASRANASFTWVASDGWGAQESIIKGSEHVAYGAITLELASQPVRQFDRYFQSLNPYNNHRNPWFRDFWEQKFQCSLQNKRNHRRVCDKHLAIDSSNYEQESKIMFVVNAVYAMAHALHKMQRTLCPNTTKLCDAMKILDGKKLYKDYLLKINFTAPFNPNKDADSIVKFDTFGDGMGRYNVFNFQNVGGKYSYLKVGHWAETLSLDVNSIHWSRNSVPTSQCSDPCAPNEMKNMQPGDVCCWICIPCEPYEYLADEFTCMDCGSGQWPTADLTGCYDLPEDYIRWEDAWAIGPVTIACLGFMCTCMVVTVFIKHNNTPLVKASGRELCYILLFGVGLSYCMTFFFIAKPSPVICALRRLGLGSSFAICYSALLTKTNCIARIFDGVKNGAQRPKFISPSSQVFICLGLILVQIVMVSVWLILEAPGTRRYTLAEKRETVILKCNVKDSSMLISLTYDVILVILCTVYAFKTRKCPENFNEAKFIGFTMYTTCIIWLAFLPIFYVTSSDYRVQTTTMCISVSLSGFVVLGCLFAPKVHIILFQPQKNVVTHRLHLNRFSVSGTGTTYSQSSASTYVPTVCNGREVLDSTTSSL

In general, IC50 refers to the midpoint of a concentration-inhibition curve. The low end stands for greater potency in that assay, the high end for weaker potency in that assay. As to `Cn1ccc(COc2cc3c(cc2-c2ccc(F)cc2)C(=O)NC3)n1` [Compound 1, 6-(4-fluorophenyl)-5-((1-methyl-1H-pyrazol-3-yl)methoxy)isoindolin-1-one], the IC50 on human mGlu2 was found to be 594 nM. In addition, at human mGlu3, the “Human mGlu3 GIRK IC50 (nM)” value is given as “Inactive”. At human mGlu2, `Cc1ncc(COc2cc3c(cc2-c2ccc(F)cc2)C(=O)NC3)s1` [Compound 2, 6-(4-fluorophenyl)-5-((2-methylthiazol-5-yl)methoxy)isoindolin-1-one] showed an IC50 of 380 nM. The “Human mGlu3 GIRK IC50 (nM)” value at human mGlu3 is “Inactive”.

On human mGlu2, `Cc1csc(COc2cc3c(cc2-c2ccc(F)cc2)C(=O)NC3)n1` [Compound 3, 6-(4-fluorophenyl)-5-((4-methylthiazol-2-yl)methoxy)isoindolin-1-one] displayed an IC50 of 418 nM. The “Human mGlu3 GIRK IC50 (nM)” value on human mGlu3 is “Inactive”. On the same counts, the results for `CC(C)n1ccc(COc2cc3c(cc2-c2ccc(F)cc2)C(=O)NC3)n1` [Compound 4, 6-(4-fluorophenyl)-5-((1-isopropyl-1H-pyrazol-3-yl)methoxy)isoindolin-1-one] are 261 nM and “Inactive”. For the compound `Cc1ccc(COc2cc3c(cc2-c2ccc(F)cc2)C(=O)NC3)cn1` [Compound 5, 6-(4-fluorophenyl)-5-((6-methylpyridin-3-yl)methoxy)isoindolin-1-one], inhibition against human mGlu2 was half-maximal at 392 nM (IC50). The “Human mGlu3 GIRK IC50 (nM)” value on human mGlu3 was “Inactive”. On the same counts, the results for `O=C1NCc2cc(OCc3ccncc3)c(-c3ccc(F)cc3)cc21` [Compound 6, 6-(4-fluorophenyl)-5-(pyridin-4-ylmethoxy)isoindolin-1-one] are 237 nM and “Inactive”.

On to `COc1cccc(COc2cc3c(cc2-c2ccc(F)cc2)C(=O)NC3)c1` [Compound 7, 6-(4-fluorophenyl)-5-((3-methoxybenzyl)oxy)isoindolin-1-one], for which, at human mGlu2, half-maximal inhibition (IC50) was put at 8290 nM. For the same compound, the “Human mGlu3 GIRK IC50 (nM)” value on human mGlu3 is listed as “Inactive”. As to `O=C1NCc2cc(OC3CN(C(=O)c4ccno4)C3)c(-c3ccc(F)cc3)cc21` [Compound 69, 6-(4-fluorophenyl)-5-((1-(isoxazole-5-carbonyl)azetidin-3-yl)oxy)isoindolin-1-one], the IC50 against rat mGlu2 is over 10000 nM. Still for that read-out and setting: to `N#Cc1cccc(C(=O)N2CC(Oc3cc4c(cc3-c3ccc(F)cc3)C(=O)NC4)C2)c1` [Compound 70, 3-(3-((6-(4-fluorophenyl)-1-oxoisoindolin-5-yl)oxy)azetidine-1-carbonyl)benzonitrile] belongs 4780 nM and > 30000 nM; to `Cn1ccc(N2CC(Oc3cc4c(cc3-c3ccc(F)cc3)C(=O)NC4)C2)n1` [Compound 71, 6-(4-fluorophenyl)-5-((1-(1-methyl-1H-pyrazol-3-yl)azetidin-3-yl)oxy)isoindolin-1-one], 1960 nM; to `Cc1ncc(S(=O)(=O)N2CC(Oc3cc4c(cc3-c3ccc(F)cc3)C(=O)NC4)C2)s1` [Compound 72, 6-(4-fluorophenyl)-5-((1-((2-methylthiazol-5-yl)sulfonyl)azetidin-3-yl)oxy)isoindolin-1-one], 2140 nM. The same measure, in the same setting: the figure for `Cc1c(S(=O)(=O)N2CC(Oc3cc4c(cc3-c3ccc(F)cc3)C(=O)NC4)C2)cnn1C(F)F` [Compound 73, 5-((1-((1-(difluoromethyl)-5-methyl-1H-pyrazol-4-yl)sulfonyl)azetidin-3-yl)oxy)-6-(4-fluorophenyl)isoindolin-1-one] is 8040 nM; for `Cc1nocc1S(=O)(=O)N1CC(Oc2cc3c(cc2-c2ccc(F)cc2)C(=O)NC3)C1` [Compound 74, 6-(4-fluorophenyl)-5-((1-((3-methylisoxazol-4-yl)sulfonyl)azetidin-3-yl)oxy)isoindolin-1-one] it is over 10000 nM.

In the case of `O=C1NCc2cc(OC3CN(S(=O)(=O)c4ccc5cnccc5c4)C3)c(-c3ccc(F)cc3)cc21` [Compound 75, 6-(4-fluorophenyl)-5-((1-(isoquinolin-6-ylsulfonyl)azetidin-3-yl)oxy)isoindolin-1-one], at rat mGlu2, the IC50 was over 10000 nM. The same measure, in the same setting: to `Cc1csc(C)c1S(=O)(=O)N1CC(Oc2cc3c(cc2-c2ccc(F)cc2)C(=O)NC3)C1` [Compound 76, 5-((1-((2,4-dimethylthiophen-3-yl)sulfonyl)azetidin-3-yl)oxy)-6-(4-fluorophenyl)isoindolin-1-one] belongs 1000 nM; to `Cc1cc(S(=O)(=O)N2CC(Oc3cc4c(cc3-c3ccc(F)cc3)C(=O)NC4)C2)nn1C` [Compound 77, 5-((1-((1,5-dimethyl-1H-pyrazol-3-yl)sulfonyl)azetidin-3-yl)oxy)-6-(4-fluorophenyl)isoindolin-1-one], 2670 nM. The same measure, in the same setting: to `Cn1cc(CN2CC(Oc3cc4c(cc3-c3ccc(F)cc3)C(=O)NC4)C2)cn1` [Compound 78, 6-(4-fluorophenyl)-5-((1-((1-methyl-1H-pyrazol-4-yl)methyl)azetidin-3-yl)oxy)isoindolin-1-one] belongs over 10000 nM. Still for that read-out and setting: the figure for `Cc1nc(CN2CC(Oc3cc4c(cc3-c3ccc(F)cc3)C(=O)NC4)C2)cs1` [Compound 79, 6-(4-fluorophenyl)-5-((1-((2-methylthiazol-4-yl)methyl)azetidin-3-yl)oxy)isoindolin-1-one] is 2540 nM; for `Cc1cc(CN2CC(Oc3cc4c(cc3-c3ccc(F)cc3)C(=O)NC4)C2)no1` [Compound 80, 6-(4-fluorophenyl)-5-((1-((5-methylisoxazol-3-yl)methyl)azetidin-3-yl)oxy)isoindolin-1-one] it is 1990 nM. At rat mGlu2, `O=C1NCc2cc(OC3CN(Cc4ccc(C(F)(F)F)o4)C3)c(-c3ccc(F)cc3)cc21` [Compound 81, 6-(4-fluorophenyl)-5-((1-((5-(trifluoromethyl)furan-2-yl)methyl)azetidin-3-yl)oxy)isoindolin-1-one] registered an IC50 of 1670 nM. On the same count and under the same terms, the figure for `O=C1NCc2cc(OC3CN(Cc4cccnc4Cl)C3)c(-c3ccc(F)cc3)cc21` [Compound 82, 5-((1-((2-chloropyridin-3-yl)methyl)azetidin-3-yl)oxy)-6-(4-fluorophenyl)isoindolin-1-one] is 2610 nM.

At rat mGlu2, `O=C1NCc2cc(OC3CN(Cc4ccc5ncccc5c4)C3)c(-c3ccc(F)cc3)cc21` [Compound 83, 6-(4-fluorophenyl)-5-((1-(quinolin-6-ylmethyl)azetidin-3-yl)oxy)isoindolin-1-one] had an IC50 of 5000 nM.

The values above are taken from patent US20240199640A1, “NEGATIVE ALLOSTERIC MODULATORS OF METABOTROPIC GLUTAMATE RECEPTOR 2” (priority 2021, published 2024).
